The first assay has as its target T1, Menin-MLL (Homo sapiens, UniProt O00255).
T1 construct: His-Menin (M1-L615 end); purchased BIORTUS BP9210
T1 sequence (O00255 1-615 isoform O00255-1): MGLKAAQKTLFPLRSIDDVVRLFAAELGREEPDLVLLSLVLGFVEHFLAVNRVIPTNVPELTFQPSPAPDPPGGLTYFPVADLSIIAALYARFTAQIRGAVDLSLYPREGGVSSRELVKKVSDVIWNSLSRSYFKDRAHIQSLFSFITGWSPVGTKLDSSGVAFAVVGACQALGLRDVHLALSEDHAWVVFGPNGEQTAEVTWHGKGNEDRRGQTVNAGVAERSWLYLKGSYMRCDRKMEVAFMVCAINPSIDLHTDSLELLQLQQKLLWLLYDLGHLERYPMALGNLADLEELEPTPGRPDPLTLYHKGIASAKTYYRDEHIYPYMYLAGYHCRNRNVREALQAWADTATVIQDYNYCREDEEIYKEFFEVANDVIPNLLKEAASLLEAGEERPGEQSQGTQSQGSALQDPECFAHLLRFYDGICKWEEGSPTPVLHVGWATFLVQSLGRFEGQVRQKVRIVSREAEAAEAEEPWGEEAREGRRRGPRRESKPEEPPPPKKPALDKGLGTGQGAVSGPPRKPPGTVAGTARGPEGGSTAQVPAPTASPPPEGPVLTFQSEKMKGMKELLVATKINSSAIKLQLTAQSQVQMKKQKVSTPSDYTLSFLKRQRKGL
The assay is described as follows: Inhibitory activity against Menin-MLL binding (fluorescence polarization). The note with it: Menin-MLL IC50, fluorescence polarization; 150 nM His-Menin, 15 nM FITC-MLL; 25°C for 60 min. The method, boiled down:
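His-Menin (M1-L615, 150 nM) preincubated with compound 15 min at 25 °C in HEPES pH 7.5, 50 mM NaCl, 1 mM DTT, 0.01% BSA, then 15 nM FITC-MLL4-43 peptide added for 60 min at 25 °C. Fluorescence polarization read; IC50 from 4-parameter logistic fit, duplicates.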
For orientation: Polarisation of emitted light reports the rotation of a fluorescent probe.
Broadly, the IC50 is the midpoint of a concentration-inhibition curve. On to `COCCN(C(=O)c1cc(F)ccc1-c1cc(C2CN(C(CCCN3C[C@H]4C[C@@H]3CO4)C(C)C)C2)cn2c(C)ncc12)C(C)C` (stereo partly drawn) [Example 467], for which the IC50 came out at 5 nM.
Molecule `CCN(C(=O)c1cc(F)ccc1-c1cc(N2CCC(NC[C@H]3CC[C@H](N4CCOC4=O)CC3)CC2)cc2c1cnn2C)C(C)C` [Example 36, N-ethyl-5-fluoro-2-{1-methyl-6-[4-({[(1r,4r)-4-(2-oxo-1,3-oxazolidin-3-yl)cyclohexyl]methyl}amino)piperidin-1-yl]-1H-indazol-4-yl}-N-(isopropyl)benzamide] gave a concentration for half-maximal inhibition (IC50) of 156 nM.
The same measure, in the same setting: the figure for `CCN(C(=O)c1cc(F)ccc1-c1cc(C2CCN(C[C@]3(F)CC[C@@H](NS(=O)(=O)CC)CC3)C2)cn2c(C)ncc12)C(C)C` (stereo partly drawn) [Compound 52, N-ethyl-5-fluoro-2-[3-methyl-6-(1-{[(1s,4s)-4-ethanesulfonamido-1-fluorocyclohexyl]methyl}pyrrolidin-3-yl)imidazo[1,5-a]pyridin-8-yl]-N-(isopropyl)benzamide] is 28.5 nM; for `CCN(C(=O)c1cc(F)ccc1-c1cc(C2=CCN(C(=O)C3NC4CCC3CC4)CC2)n2ccncc12)C(C)C` [Example 110, N-ethyl-5-fluoro-N-(isopropyl)-2-(6-{1-[(1R,3S,4S)-2-azabicyclo[2.2.2]octan-3-carbonyl]-1,2,3,6-tetrahydropyridin-4-yl}pyrrolo[1,2-a]pyrazin-8-yl)benzamide] it is 25 nM.
The same measure, in the same setting: then `CCN(C(=O)c1cc(F)ccc1-c1cc(N2CCN(C(=O)[C@H]3N[C@@H]4CC[C@H]3C4)CC2)cn2c(C)ncc12)C(C)C` [Example 88], with 52 nM.

The same assay, now with this note: fluorescence polarization; 150 nM His-Menin, 15 nM FITC-MLL; 25°C for 60 min; read-out: Menin-MLL IC50.
Regarding `Cc1nc(F)c2c(-c3ccc(F)cc3C(=O)N3CCOC[C@H]3C)cc(C3CN([C@@H](CN4CCN(C)CC4)C(C)C)C3)cn12` [Example 368-1, (3R)-4-[5-fluoro-2-(1-fluoro-3-methyl-6-{1-[(2R)-3-methyl-1-(4-methylpiperazin-1-yl)butan-2-yl]azacyclobutan-3-yl}imidazo[1,5-a]pyridin-8-yl)benzoyl]-3-methylmorpholine], the IC50 amounted to 23 nM.
Same read-out and setting: then `CCN(C(=O)c1cc(F)ccc1-c1nc(C2CN([C@H](CCCN3CCN(CCC#N)CC3)C(C)C)C2)cn2c(C)ncc12)C(C)C` [Example 492], with 270 nM.
On the same count and under the same terms, then `CCN(C(=O)c1cc(F)ccc1-c1cc(C2CN([C@@H](C)C3CCN(C(C)=O)CC3)C2)cn2c(C)nc(F)c12)C(C)C` [Example 288-2], with 2 nM.
On the same count and under the same terms, then `CCS(=O)(=O)N[C@@H]1CC[C@@H](CN2CC[C@@H](c3cc(-c4ccc(F)cc4C(=O)N(CC(F)F)C(C)C)c4cnc(C)n4c3)C2)OC1` [Example 163-1, N-(2,2-difluoroethyl)-2-{6-[(3S)-1-{[(2S,5R)-5-ethanesulfonamidooxacyclohexan-2-yl]methyl}pyrrolidin-3-yl]-3-methylimidazo[1,5-a]pyridin-8-yl}-5-fluoro-N-(isopropyl)benzamide], with 47 nM; and `CC(=O)N1CCC(CN2CC(Cc3cc(-c4ccc(F)cc4C(=O)N4[C@H](C)COC[C@H]4C)c4c(F)nc(C)n4c3)C2)CC1` [Example 228], with 130 nM.
For `CO[C@H]1CCN(CCC[C@@H](C(C)C)N2CC(c3cc(-c4ccc(F)cc4C(=O)N4CCOC[C@H]4C)c4cnn(C)c4c3)C2)C1` [Example 184-1], the IC50 came to 805 nM.
For the molecule `COCCN(C)CCC[C@@H](C(C)C)N1CC(c2cc(-c3ccc(F)cc3C(=O)N3[C@H](C)COC[C@H]3C)c3cnn(C)c3c2)C1` [Example 186-1, [(4S)-4-[3-(4-{2-[(3R,5R)-3,5-dimethylmorpholin-4-carbonyl]-4-fluorophenyl}-1-methyl-1H-indazol-6-yl)azacyclobutan-1-yl]-5-methylhexyl](2-methoxyethyl)methylamine], the IC50 was determined as 262 nM.
On the same count and under the same terms, the figure for `CCN(C(=O)c1cc(F)ccc1-c1cc(C2CCN(C[C@H]3CC[C@H](NC(=O)OC(C)(C)C)CC3)C2)cn2c(C)ncc12)C(C)C` (mixture of isomers) [Example 29, N-[(1r,4r)-4-{[3-(8-{2-[ethyl(isopropyl)aminoformyl]-4-fluorophenyl}-3-methylimidazo[1,5-a]pyridin-6-yl)pyrrolidin-1-yl]methyl}cyclohexyl]tert-butyl carbamate] is 10.5 nM; for `CCN(C(=O)c1cc(F)ccc1-c1cc(C2CN([C@H](CCCN3CCOCC3)C(C)C)C2)cn2c(C)ncc12)C(C)C` [Example 375, N-ethyl-5-fluoro-2-(3-methyl-6-{1-[(3R)-2-methyl-6-(morpholin-4-yl)hexan-3-yl]azacyclobutan-3-yl}imidazo[1,5-a]pyridin-8-yl)-N-(isopropyl)benzamide] it is 3.9 nM.
Still for that read-out and setting: the figure for `CCN1CCN(CCC[C@@H](C(C)C)N2CC(c3cc(-c4ccc(F)cc4C(=O)N(CC)C(C)C)c4cnn(C)c4c3)C2)CC1` [Example 394-1, N-ethyl-2-(6-{1-[(3S)-6-(4-ethylpiperazin-1-yl)-2-methylhexan-3-yl]azacyclobutan-3-yl}-1-methyl-1H-indazol-4-yl)-5-fluoro-N-(isopropyl)benzamide] is 188 nM; for `CCN(C(=O)c1cc(F)ccc1-c1cc(C2CN([C@@H](CCCN3CCC(OCCO)CC3)C(C)C)C2)cc2c1cnn2C)C(C)C` [Example 401-1] it is 130 nM; for `CC(=O)N1CCN(CCC[C@H](C(C)C)N2CC(c3cc(-c4ccc(F)cc4C(=O)N4CCOC[C@H]4C)c4c(F)nc(C)n4c3)C2)C[C@H]1C` [Example 330, 1-{(2R)-4-[(4R)-4-[3-(1-fluoro-8-{4-fluoro-2-[(3R)-3-methylmorpholin-4-carbonyl]phenyl}-3-methylimidazo[1,5-a]pyridin-6-yl)azacyclobutan-1-yl]-5-methylhexyl]-2-methylpiperazin-1-yl}ethan-1-one] it is 16 nM.
The same measure, in the same setting: the figure for `Cc1nc(F)c2c(-c3ccc(F)cc3C(=O)N3CCOC[C@H]3C)cc(C3CN(CC4CCN(S(=O)(=O)C5CC5)CC4)C3)cn12` [Example 252] is 109 nM.
Consider `CCN(C(=O)c1cc(F)ccc1-c1cc(C2CN([C@H](CCCN3CCN(C4(CC#N)COC4)CC3)C(C)C)C2)cn2c(C)ncc12)C(C)C` [Example 490, 2-(6-{1-[(3R)-6-{4-[3-(cyanomethyl)oxacyclobutan-3-yl]piperazin-1-yl}-2-methylhexan-3-yl]azacyclobutan-3-yl}-3-methylimidazo[1,5-a]pyridin-8-yl)-N-ethyl-5-fluoro-N-(isopropyl)benzamide], for which the IC50 turned out to be 2.9 nM.
Same read-out and setting: the figure for `CC[C@H](C1CCN(C(C)=O)CC1)N1CC(c2cc(-c3ccc(F)cc3C(=O)N3CCOC[C@H]3C)c3c(F)nc(C)n3c2)C1` [Example 280-2, 1-{4-[(1R)-1-[3-(1-fluoro-8-{4-fluoro-2-[(3R)-3-methylmorpholin-4-carbonyl]phenyl}-3-methylimidazo[1,5-a]pyridin-6-yl)azacyclobutan-1-yl]propyl]piperidin-1-yl}ethan-1-one] is 160 nM; for `CCN(C(=O)c1cc(F)ccc1-c1cc(C2CN([C@@H](CCCN3CCN(C(=O)OC(C)(C)C)CC3)C(C)C)C2)cn2c(C)ncc12)C(C)C` [Example 454-2, 4-[(4S)-4-[3-(8-{2-[ethyl(isopropyl)aminoformyl]-4-fluorophenyl}-3-methylimidazo[1,5-a]pyridin-6-yl)azacyclobutan-1-yl]-5-methylhexyl]piperazin-1-tert-butyl carboxylate] it is 80 nM; for `COC[C@H]1CN(CCC[C@@H](C(C)C)N2CC(c3cc(-c4ccc(F)cc4C(=O)N(C(C)C)C(C)C)c4cnc(C)n4c3)C2)CCN1` [Example 504-1, 5-fluoro-2-(6-{1-[(3S)-6-[(3R)-3-(methoxymethyl)piperazin-1-yl]-2-methylhexan-3-yl]azacyclobutan-3-yl}-3-methylimidazo[1,5-a]pyridin-8-yl)-N,N-di(isopropyl)benzamide] it is 17 nM.
Take `CCN(C(=O)c1cc(F)ccc1-c1cc(C2CN([C@@H](CCCN(C)CCOC)C(C)C)C2)cn2c(C)nc(F)c12)C(C)C` [Example 307-1, N-ethyl-5-fluoro-2-(1-fluoro-6-{1-[(3S)-6-[(2-methoxyethyl)(methyl)amino]-2-methylhexan-3-yl]azacyclobutan-3-yl}-3-methylimidazo[1,5-a]pyridin-8-yl)-N-(isopropyl)benzamide]: the IC50 was 14.5 nM.
Same read-out and setting: then `CCN(C(=O)c1cc(F)ccc1-c1cc(C2CN([C@H](CCCN3CCN(C(=O)OC(C)(C)C)CC3)C(C)C)C2)cn2c(C)ncc12)C(C)C` [Example 454-1, 4-[(4R)-4-[3-(8-{2-[ethyl(isopropyl)aminoformyl]-4-fluorophenyl}-3-methylimidazo[1,5-a]pyridin-6-yl)azacyclobutan-1-yl]-5-methylhexyl]piperazin-1-tert-butyl carboxylate], with 7.7 nM.
